The values below come from patent publication US20100099770A1, “METHOD FOR TREATING DIABETIC PERIPHERAL NEUROPATHIC PAIN” (SCHWARZ PHARMA AG, priority 2001, published 2010).

Assay [1] deals with Carrageenan-induced mechanical hyperalgesia. In words: Carrageenan-induced mechanical hyperalgesia, paw pressure (Randall-Sellito) test. Format: in vivo, rats. The settings on record: for nociceptive threshold: inflamed paw, 3 h after carrageenan. The procedure:
Carrageenan-induced mechanical hyperalgesia in rats was induced by subplantar injection of a 0.1 ml of a 2% carrageenan suspension and measured 3 h afterwards by the paw pressure (Randall-Sellito) test.
(§1) Drugs and experimental design: SPM 927 and GBP were suspended in 1% methylcellulose and administered i.p. at doses of 10 mg/kg, 20 mg/kg and 40 mg/kg. Pre-treatment time was 30 min before pain measurement. One group of animals served as controls and consequently received an injection of solvent (10 ml/kg) and another group of animals received a reference compound (Carrageenan test: 10 mg/kg indomethacin; Formalin test: 10 mg/kg morphine). Each compound was tested in a separate experiment and each experiment included a control and a reference group. 10 rats per group were used in the Carrageenan test and 6 mice per group in the formalin test.

The subject of assay [2] is neuropathic pain (CHUNG), thermal stimulation. In words: Neuropathic pain (CHUNG) test, thermal stimulation on lesioned paw. The settings on record: for PAW-WITHDRAWAL LATENCY, % change: compared with lesioned control; for PAW-WITHDRAWAL LATENCY, mean ± s.e.m.: lesioned paw. Format: in vivo, rat. The text has this:
The following Tables 8 and 9 show the effects of harkoseride (hereinafter referred tows SPM 927), carbamazepine, levetiracetam, gabapentin and morphine in the neuropathic pain (CHUNG) test in the rat. Eight (8) rats per group were used.

In assay [3] the test system is formalin-induced nociception (paw licking). The assay can be described thus: Subchronic inflammatory nociception in mice (formalin test). Format: in vivo. Particulars: for nociceptive threshold, early phase: 0-5 min after formalin (acute pain); for nociceptive threshold, late phase: 20-30 min after formalin (subchronic inflammatory pain); for effect on formalin-induced nociceptive response (in words): 10, 20, 40 mg/kg i.p. The procedure: Subchronic inflammatory nocicpetion in mice was induced by the subplantar injection of formalin (0.02 ml of a 5% solution). Nociceptive behaviour (paw licking) was measured and quantified between 0 and 5 min (acute pain) and between 20 and 30 min (subchronic inflammatory pain) after formalin.
as §1

Entries after “also recorded” stand apart in the source; their conditions may differ. Marks after values point to notes of the source that are not given here.

In the case of `COC[C@@H](NC(C)=O)C(=O)NCc1ccccc1` [SPM 927, (R)-2-Acetamido-N-benzyl-3-methoxypropionamide], the nociceptive threshold in assay [1] (10 mg/kg i.p. 30 min before measurement) was 324 ± 15^b; in assay [1] (20 mg/kg i.p. 30 min before measurement), 426 ± 24^b; in assay [1] (40 mg/kg i.p. 30 min before measurement), 444 ± 13^b. In addition, the “effect on Carrageenan-induced mechanical hyperalgesia (in words)” value in assay [1] (10, 20, 40 mg/kg i.p.) is given as “full reversal; also recorded: comparable to that of the reference compound Indomethacin”. Also, the entries for the “PAW-WITHDRAWAL LATENCY, % change” value in assay [2] (8 mg/kg i.p. -30 min), in assay [2] (16 mg/kg i.p. -30 min) and in assay [2] (32 mg/kg i.p. -30 min) were “+60% (b)”, “+3% b)” and “+29% (b)”, respectively. Moreover, the “PAW-WITHDRAWAL LATENCY, mean ± s.e.m.” value in assay [2] (8 mg/kg i.p. -30 min) is given as 26.1 ± 5.4 NS (b) sec; in assay [2] (16 mg/kg i.p. -30 min) it was 16.8 ± 4.5 NS (b) sec; in assay [2] (32 mg/kg i.p. -30 min), 21.1 ± 5.6 NS (b) sec. Further, the results for the “nociceptive threshold, early phase” value in assay [3] (10 mg/kg i.p.), in assay [3] (20 mg/kg i.p.) and in assay [3] (40 mg/kg i.p.) were 67 ± 15 s, 69 ± 8 s and 8 ± 8^a s, respectively. Also, the “nociceptive threshold, late phase” value in assay [3] (10 mg/kg i.p.) was 58 ± 16^a s; in assay [3] (20 mg/kg i.p.), 128 ± 16 s; in assay [3] (40 mg/kg i.p.) it was 17 ± 17^a s. Besides, the “effect on formalin-induced nociceptive response (in words)” value is listed as “near complete reversal” in assay [3] and “dose dependently suppressed” in assay [3] (listed as SPM-927).
